pEC50: −log10 of the molar value. Counter-ions that a name gives are not always drawn.
Legend:
[1] = biological target: T1, human RORgt nuclear receptor (RORgT ligand binding domain protein) (Homo sapiens, UniProt P51449); assay: ROR-gamma binding assay (Scintillation Proximity Assay, displacement of [3H]-25-hydroxycholesterol); conditions: EC50, SPA, 15 nM [3H]-25-Hydroxycholesterol, RORgT LBD 12 nM
T1 construct: purchased Proteros Biostructures GmbH
T1 sequence (P51449 with tags, fused parts or gaps): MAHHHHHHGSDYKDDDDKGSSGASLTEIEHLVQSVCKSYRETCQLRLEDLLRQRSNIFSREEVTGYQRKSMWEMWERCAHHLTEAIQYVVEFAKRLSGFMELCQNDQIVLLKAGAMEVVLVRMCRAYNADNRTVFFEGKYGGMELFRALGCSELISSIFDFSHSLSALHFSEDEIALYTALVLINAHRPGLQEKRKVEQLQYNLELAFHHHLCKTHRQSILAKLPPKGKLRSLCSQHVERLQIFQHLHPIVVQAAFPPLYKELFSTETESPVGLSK
How it was run: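 SPA competition of compound against 15 nM [3H]-25-hydroxycholesterol for His/FLAG-tagged human RORγt LBD (12 nM) on His-tag PVT beads, in 50 mM HEPES pH 7.4, 150 mM NaCl, 5 mM MgCl2, 0.1% BSA, 0.5% DMSO. 30 min preincubation, then ≥4 h at room temperature in darkness; EC50 by four-parameter fit.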

[2] = tested on: IL-17A in Human peripheral mononuclear cells; assay: Human PBMC IL-17A assay; type: cell-based; conditions: 72 h, EC50, antiCD3/antiCD28-coated beads, 3 days, alpha-LISA
How it was run: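 Cryopreserved human PBMC (130,000/well) stimulated with anti-CD3/anti-CD28-coated beads (1 cell per bead) in RPMI-1640 with 10% bovine calf serum, compounds at 0.1% DMSO, for 3 days. Supernatant IL-17A measured by AlphaLISA, viability by PrestoBlue; EC50 from 4-parameter non-linear regression.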

[3] = tested on: IL-17A levels in human peripheral blood; assay: tissue or blood; type: cell-based; conditions: 72 h, read-out: Human Whole blood IL-17A (nM)

SMILES: Cc1cc(CN2CCN(C(=O)OC(C)C)[C@@H](C)C2)c(C)c(Nc2nnc([C@@H](N)[C@@H](C)O)o2)c1 [Example 41, isopropyl (2S)-4-[[3-[[5-[(1S,2R)-1-amino-2-hydroxy-propyl]-1,3,4-oxadiazol-2-yl]amino]-2,5-dimethyl-phenyl]methyl]-2-methyl-piperazine-1-carboxylate]
- pEC50 [1]: 7.04
- pEC50 [2]: 6.67
- EC50 [3]: 373 nM

SMILES: Cc1cc(CN2CCN(C(=O)OC(C)C)[C@@H](C)C2)c(C)c(Nc2nnc(CC#N)o2)c1 [Example 42, isopropyl (2S)-4-[[3-[[5-(cyanomethyl)-1,3,4-oxadiazol-2-yl]amino]-2,5-dimethyl-phenyl]methyl]-2-methyl-piperazine-1-carboxylate]
- pEC50 [1]: 7.32
- pEC50 [2]: 7.47
- EC50 [3]: 359 nM

SMILES: Cc1c(CN2CCN(C(=O)OC(C)C)[C@@H](C)C2)cc(C(F)F)cc1Nc1nnc([C@H](C)O)o1 [Example 43, isopropyl (2S)-4-[[5-(difluoromethyl)-3-[[5-[(1S)-1-hydroxyethyl]-1,3,4-oxadiazol-2-yl]amino]-2-methyl-phenyl]methyl]-2-methyl-piperazine-1-carboxylate]
- pEC50 [1]: 7.27
- pEC50 [2]: 7.20
- EC50 [3]: 332 nM

SMILES: Cc1c(CN2CCN(C(=O)OC(C)C)[C@@H](C)C2)cc(Cl)cc1Nc1nnc(C2CCCOC2)o1 (stereo partly drawn) [Example 44, isopropyl (2S)-4-[[5-chloro-2-methyl-3-[(5-tetrahydropyran-3-yl-1,3,4-oxadiazol-2-yl)amino]phenyl]methyl]-2-methyl-piperazine-1-carboxylate]
- pEC50 [1]: 7.64
- pEC50 [2]: 7.59
- EC50 [3]: 330 nM

SMILES: Cc1c(CN2CCN(C(=O)OC(C)C)[C@@H](C)C2)cc(Cl)cc1Nc1nnc(C2(O)CC2)o1 [Example 45, isopropyl (2S)-4-[[5-chloro-3-[[5-(1-hydroxycyclopropyl)-1,3,4-oxadiazol-2-yl]amino]-2-methyl-phenyl]methyl]-2-methyl-piperazine-1-carboxylate]
- pEC50 [1]: 7.38
- pEC50 [2]: 7.40
- EC50 [3]: 330 nM

SMILES: Cc1c(CN2CCN(C(=O)OC(C)C)[C@@H](C)C2)cc(Cl)cc1Nc1nnc(C2(CO)CC2)o1 [Example 46, isopropyl (2S)-4-[[5-chloro-3-[[5-[1-(hydroxymethyl)cyclopropyl]-1,3,4-oxadiazol-2-yl]amino]-2-methyl-phenyl]methyl]-2-methyl-piperazine-1-carboxylate]
- pEC50 [1]: 7.43
- pEC50 [2]: 6.99
- EC50 [3]: 322 nM

SMILES: Cc1c(CN2CCN(C(=O)OC(C)C)[C@@H](C)C2)cc(Cl)cc1Nc1nnc(C(O)C(F)(F)F)o1 (stereo partly drawn) [Example 47, isopropyl (2S)-4-[[5-chloro-2-methyl-3-[[5-(2,2,2-trifluoro-1-hydroxy-ethyl)-1,3,4-oxadiazol-2-yl]amino]phenyl]methyl]-2-methyl-piperazine-1-carboxylate]
- pEC50 [1]: 7.58
- pEC50 [2]: 7.20
- EC50 [3]: 307 nM

SMILES: Cc1c(CN2CCN(C(=O)OC(C)C)[C@@H](C)C2)cc(Cl)cc1Nc1nnc(C2CCNC2=O)o1 (stereo partly drawn) [Example 48, isopropyl (2S)-4-[[5-chloro-2-methyl-3-[[5-(2-oxopyrrolidin-3-yl)-1,3,4-oxadiazol-2-yl]amino]phenyl]methyl]-2-methyl-piperazine-1-carboxylate]
- pEC50 [1]: 7.43
- pEC50 [2]: 6.72
- EC50 [3]: 296 nM

SMILES: Cc1cc(CN2CCN(C(=O)OC(C)C)[C@@H](C)C2)c(C)c(Nc2nnc([C@H](C)N)o2)c1 [Example 49, isopropyl (2S)-4-[[3-[[5-[(1S)-1-aminoethyl]-1,3,4-oxadiazol-2-yl]amino]-2,5-dimethyl-phenyl]methyl]-2-methyl-piperazine-1-carboxylate]
- pEC50 [1]: 7.04
- pEC50 [2]: 6.66
- EC50 [3]: 275 nM

SMILES: Cc1c(CN2CCN(C(=O)OC(C)C)[C@@H](C)C2)cc(C(F)F)cc1Nc1nnc([C@@H](C)O)o1 [Example 50, isopropyl (2S)-4-[[5-(difluoromethyl)-3-[[5-[(1R)-1-hydroxyethyl]-1,3,4-oxadiazol-2-yl]amino]-2-methyl-phenyl]methyl]-2-methyl-piperazine-1-carboxylate]
- pEC50 [1]: 7.50
- pEC50 [2]: 7.06
- EC50 [3]: 272 nM

SMILES: Cc1cc(CN2CCN(C(=O)OC(C)C)[C@@H](C)C2)c(C)c(Nc2nnc(C3CNC(=O)C3)o2)c1 (stereo partly drawn) [Example 51, isopropyl (2S)-4-[[2,5-dimethyl-3-[[5-(5-oxopyrrolidin-3-yl)-1,3,4-oxadiazol-2-yl]amino]phenyl]methyl]-2-methyl-piperazine-1-carboxylate]
- pEC50 [1]: 7.19
- pEC50 [2]: 6.67
- EC50 [3]: 266 nM

SMILES: Cc1cc(CN2CCN(C(=O)OC(C)C)[C@@H](C)C2)c(C)c(Nc2nnc([C@@H]3CNC(=O)O3)o2)c1 [Example 52, isopropyl (2S)-4-[[2,5-dimethyl-3-[[5-[(5S)-2-oxooxazolidin-5-yl]-1,3,4-oxadiazol-2-yl]amino]phenyl]methyl]-2-methyl-piperazine-1-carboxylate]
- pEC50 [1]: 7.38
- pEC50 [2]: 6.87
- EC50 [3]: 256 nM

SMILES: Cc1c(CN2CCN(C(=O)OC(C)C)[C@@H](C)C2)cc(Cl)cc1Nc1nnc([C@@H]2CC(=O)N2)o1 [Example 53, isopropyl (2S)-4-[[5-chloro-2-methyl-3-[[5-[(2S)-4-oxoazetidin-2-yl]-1,3,4-oxadiazol-2-yl]amino]phenyl]methyl]-2-methyl-piperazine-1-carboxylate]
- pEC50 [1]: 7.17
- pEC50 [2]: 7.03
- EC50 [3]: 247 nM

SMILES: Cc1cc(CN2CCN(C(=O)OC(C)C)[C@@H](C)C2)c(C)c(Nc2nnc(-c3nonc3C)o2)c1 [Example 54, isopropyl (2S)-4-[[2,5-dimethyl-3-[[5-(4-methyl-1,2,5-oxadiazol-3-yl)-1,3,4-oxadiazol-2-yl]amino]phenyl]methyl]-2-methyl-piperazine-1-carboxylate]
- pEC50 [1]: 7.79
- pEC50 [2]: 7.55
- EC50 [3]: 176 nM

SMILES: Cc1cc(CN2CCN(C(=O)OC(C)C)[C@@H](C)C2)c(C)c(Nc2nnc([C@@H]3COCCN3)o2)c1 [Example 55, isopropyl (2S)-4-[[2,5-dimethyl-3-[[5-[(3S)-morpholin-3-yl]-1,3,4-oxadiazol-2-yl]amino]phenyl]methyl]-2-methyl-piperazine-1-carboxylate dihydrochloride]
- pEC50 [1]: 7.41
- pEC50 [2]: 7.21
- EC50 [3]: 36.8 nM

SMILES: Cc1cc(CN2CCN(C(=O)OC(C)C)[C@@H](C)C2)c(C)c(Nc2nnc([C@@H](C)O)o2)c1 [Example 56, isopropyl (2S)-4-[[3-[[5-[(1R)-1-hydroxyethyl]-1,3,4-oxadiazol-2-yl]amino]-2,5-dimethyl-phenyl]methyl]-2-methyl-piperazine-1-carboxylate]
- pEC50 [1]: 7.44
- pEC50 [2]: 7.28
- EC50 [3]: 92.2 nM

SMILES: Cc1cc(CN2CCN(C(=O)OC(C)C)[C@@H](C)C2)c(C)c(Nc2nnc(C[C@@H](O)C(F)(F)F)o2)c1 [Example 57, isopropyl (2S)-4-[[2,5-dimethyl-3-[[5-[(2R)-3,3,3-trifluoro-2-hydroxy-propyl]-1,3,4-oxadiazol-2-yl]amino]phenyl]methyl]-2-methyl-piperazine-1-carboxylate]
- pEC50 [1]: 7.62
- pEC50 [2]: 7.33
- EC50 [3]: 96.7 nM

SMILES: Cc1cc(CN2CCN(C(=O)OC(C)C)[C@@H](C)C2)c(C)c(Nc2nnc(C3CCNC(=O)C3)o2)c1 (stereo partly drawn) [Example 58, isopropyl (2S)-4-[[2,5-dimethyl-3-[[5-(2-oxo-4-piperidyl)-1,3,4-oxadiazol-2-yl]amino]phenyl]methyl]-2-methyl-piperazine-1-carboxylate]
- pEC50 [1]: 7.26
- pEC50 [2]: 6.43
- EC50 [3]: 215 nM

SMILES: Cc1cc(CN2CCN(C(=O)OC(C)C)[C@@H](C)C2)c(C)c(Nc2nnc(-c3ccnn3C)o2)c1 [Example 59, isopropyl (2S)-4-[[2,5-dimethyl-3-[[5-(2-methylpyrazol-3-yl)-1,3,4-oxadiazol-2-yl]amino]phenyl]methyl]-2-methyl-piperazine-1-carboxylate]
- pEC50 [1]: 7.59
- pEC50 [2]: 6.91
- EC50 [3]: 211 nM

SMILES: Cc1cc(CN2CCN(C(=O)OC(C)C)[C@@H](C)C2)c(C)c(Nc2nnc(C[C@H](C)O)o2)c1 [Example 60, isopropyl (2S)-4-[[3-[[5-[(2S)-2-hydroxypropyl]-1,3,4-oxadiazol-2-yl]amino]-2,5-dimethyl-phenyl]methyl]-2-methyl-piperazine-1-carboxylate]
- pEC50 [1]: 7.42
- pEC50 [2]: 6.97
- EC50 [3]: 195 nM

SMILES: Cc1cc(CN2CCN(C(=O)OC(C)C)[C@@H](C)C2)c(C)c(Nc2nnc(C[C@@H](C)O)o2)c1 [Example 61, isopropyl (2S)-4-[[3-[[5-[(2R)-2-hydroxypropyl]-1,3,4-oxadiazol-2-yl]amino]-2,5-dimethyl-phenyl]methyl]-2-methyl-piperazine-1-carboxylate]
- pEC50 [1]: 7.37
- pEC50 [2]: 6.97
- EC50 [3]: 101 nM

Source: patent US10934282B2, “Heteroaromatic modulators of the retinoid-related orphan receptor gamma” (LEO PHARMA A/S, priority 2016, dated 2021)
